Test results published in US11458200B2, “Constructs, agents, and methods for facilitated ablation of cardiac tissue” (priority 2016, dated 2022).
“Also recorded” adds a separate entry of the source.

Legend:
[1] = test system: epicardium; experiment: Open-chest rodent survival model of epicardial RF ablation after IV quercetin; type: in vivo; details: for Lesion Depth: 10 mg/kg
Experimental: Using an open-chest rodent survival model and a custom-made catheter, RF was applied to the epicardium at 3 W for 20 seconds after infusion of a HSP inhibitor, intravenous quercetin (n=20, 10 mg/kg), or control (n=20). Animals were sacrificed at 1 (n=10 each) and 24 hours (n=10 each) after ablation. RFA lesions were stained and analyzed under microscopy.

[2] = test system: adenocarcinoma tumor; details: combined quercetin and RF energy; cited from earlier work
[3] = test system: myocardium; details: porcine model; cited from earlier work
[4] = 24 hours after RFA, 3 W for 20 seconds, IV 10 mg/kg, N 10

Compound | ablation lesions analyzed at 1 hour after RFA ([1]; 1 hour after RFA, IV 10 mg/kg) | Volume [1, 4] [µL] | Lesion Depth [1, 4] [mm] | Lesion Depth ([1]; 24 hours after RFA, 3 W for 20 seconds, IV 10 mg/kg, N 10, listed as quercetin) [mm] | lesion volumes ([1]; 24 hours after ablation, vs 25.7±8.6 control, p=0.01) [µL] | adverse events related to HSP inhibition ([1]; IV 10 mg/kg) | microscopy of lesions compared to controls ([1]; in vivo) | HSP expression [2] | apoptosis [2] | tumor destruction [2] | ablation lesion sizes after in vivo injection [3]
O=c1c(O)c(-c2ccc(O)c(O)c2)oc2cc(O)cc(O)c12 [Quercetin, 3,3′,4′,5,7-pentahydroxyflavone] | did not acutely result in larger ablation lesions | 37.6 ± 10.5 | 1.8 ± 0.3 | 1.8±0.3 | 37.6 ± 10.5 | No adverse events | larger necrotic cores and border zones | decreased HSP expression | increased apoptosis | larger tumor destruction | 
[Gd] [gadolinium] |  |  |  |  |  |  |  |  |  |  | increased lesion sizes; also recorded: larger lesions
